How the values were obtained:
Format in all cases: biochemical
[1] = molecular target: Pim2 kinase (Homo sapiens, UniProt Q9P1W9); assay: Pim2 ATP depletion assay; conditions: read-out: PIM2 IC50;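 also: Luciferase-based luminescent readout of ATP remaining after PIM2 phosphorylates a BAD peptide, final 5 nM enzyme, 4 µM ATP, 10 µM peptide, 2.5% DMSO, run to roughly half ATP consumption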
[2] = molecular target: Pim1 kinase (Homo sapiens, UniProt P11309); assay: Pim1 ATP depletion assay; conditions: Pim1 ATP depletion assay; read-out: PIM1 IC50;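 also: Luciferase-luciferin luminescence readout of residual ATP after PIM1 transfers phosphate to a peptide substrate, 40 µM ATP added, reaction run to roughly half ATP consumption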
[3] = molecular target: Pim3 kinase (Homo sapiens, UniProt Q86V86); assay: Pim3 ATP depletion assay; conditions: read-out: PIM3 IC50

Measured: IC50

Pim1 kinase, sequence (P11309 whole entry): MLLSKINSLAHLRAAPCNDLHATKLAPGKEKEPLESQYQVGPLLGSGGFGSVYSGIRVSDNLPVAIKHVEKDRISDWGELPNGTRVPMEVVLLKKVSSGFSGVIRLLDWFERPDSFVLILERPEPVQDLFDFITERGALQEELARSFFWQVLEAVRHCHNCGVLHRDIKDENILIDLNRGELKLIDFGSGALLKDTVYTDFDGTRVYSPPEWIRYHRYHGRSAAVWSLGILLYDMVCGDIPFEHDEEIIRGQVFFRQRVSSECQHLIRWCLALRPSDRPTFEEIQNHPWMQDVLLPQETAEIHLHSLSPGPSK
Pim2 kinase, sequence (Q9P1W9 whole entry): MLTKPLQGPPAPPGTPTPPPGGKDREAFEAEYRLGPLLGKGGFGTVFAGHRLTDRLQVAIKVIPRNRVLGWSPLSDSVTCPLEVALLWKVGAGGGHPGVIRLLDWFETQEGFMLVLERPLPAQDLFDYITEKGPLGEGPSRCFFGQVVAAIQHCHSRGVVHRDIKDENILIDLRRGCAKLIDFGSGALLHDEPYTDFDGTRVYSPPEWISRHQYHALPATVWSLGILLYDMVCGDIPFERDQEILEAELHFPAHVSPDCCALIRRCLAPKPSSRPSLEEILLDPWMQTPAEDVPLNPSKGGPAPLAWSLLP

CCc1ccnc(-c2ccc(N)c(C(=O)Nc3cnccc3N3CCC[C@H](N)C3)n2)c1 [Example 717, 5-Amino-4′-ethyl-[2,2′]bi-pyridinyl-6-carboxylic acid (3-amino-3,4,5,6-tetrahydro-2H-[1,4′]bipyridinyl-3′-yl)-amide]
< 1000 nM: all assays above

Nc1ccc(-c2cccc(C(F)(F)F)n2)nc1C(=O)Nc1cnccc1N1CCC[C@H](N)C1 [Example 718, 5-Amino-6′-trifluoromethyl-[2,2′]bipyridinyl-6-carboxylic acid (3-amino-3,4,5,6-tetra-hydro-2H-[1,4′]bipyridinyl-3′-yl)-amide]
< 1000 nM: all assays above

Nc1ccc(-c2ncccc2Cl)nc1C(=O)Nc1cnccc1N1CCC[C@H](N)C1 [Example 719, 5-Amino-3′-chloro-[2,2′]bi-pyridinyl-6-carboxylic acid (3-amino-3,4,5,6-tetrahydro-2H-[1,4′]bipyridinyl-3′-yl)-amide]
< 1000 nM: all assays above

Nc1ccc(-c2ncc(C(F)(F)F)cc2Cl)nc1C(=O)Nc1cnccc1N1CCC[C@H](N)C1 [Example 720, 5-Amino-3′-chloro-5′-trifluoro-methyl-[2,2′]bipyridinyl-6-carboxylic acid (3-amino-3,4,5,6-tetrahydro-2H-[1,4′]bi-pyridinyl-3′-yl)-amide]
< 1000 nM: all assays above

Nc1ccc(-c2ncccc2C(F)(F)F)nc1C(=O)Nc1cnccc1N1CCC[C@H](N)C1 [Example 721, 5-Amino-3′-trifluoromethyl-[2,2′]bipyridinyl-6-carboxylic acid (3-amino-3,4,5,6-tetra-hydro-2H-[1,4′]bipyridinyl-3′-yl)-amide]
< 1000 nM: all assays above

COc1cncc(-c2ccc(N)c(C(=O)Nc3cnccc3N3CCC[C@H](N)C3)n2)n1 [Example 722, 3-Amino-6-(6-methoxy-pyrazin-2-yl)-pyridine-2-carboxylic acid (3-amino-3,4,5,6-tetrahydro-2H-[1,4′]bipyridinyl-3′-yl)-amide]
< 1000 nM: all assays above

CCOc1cccc(-c2ccc(N)c(C(=O)Nc3cnccc3N3CCC[C@H](N)C3)n2)n1 [Example 723, 5-Amino-6′-ethoxy-[2,2′]bi-pyridinyl-6-carboxylic acid (3-amino-3,4,5,6-tetrahydro-2H-[1,4′]bipyridinyl-3′-yl)-amide]
< 1000 nM: all assays above

Cc1ccnc(-c2ccc(N)c(C(=O)Nc3cnccc3N3CCC[C@H](N)C3)n2)c1 [Example 724, 5-Amino-4′-methyl-[2,2′]bi-pyridinyl-6-carboxylic acid (3-amino-3,4,5,6-tetrahydro-2H-[1,4′]bipyridinyl-3′-yl)-amide]
< 1000 nM: all assays above

Cc1ccc(-c2ccc(N)c(C(=O)Nc3cnccc3N3CCC[C@H](N)C3)n2)nc1 [Example 725, 5-Amino-5′-methyl-[2,2′]bi-pyridinyl-6-carboxylic acid (3-amino-3,4,5,6-tetrahydro-2H-[1,4′]bipyridinyl-3′-yl)-amide]
< 1000 nM: all assays above

Cc1cccc(-c2ccc(N)c(C(=O)Nc3cnccc3N3CCC[C@H](N)C3)n2)n1 [Example 726, 5-Amino-6′-methyl-[2,2′]bi-pyridinyl-6-carboxylic acid (3-amino-3,4,5,6-tetrahydro-2H-[1,4′]bipyridinyl-3′-yl)-amide]
< 1000 nM: all assays above

Nc1ccc(-c2ccc(F)cn2)nc1C(=O)Nc1cnccc1N1CCC[C@H](N)C1 [Example 727, 5-Amino-5′-fluoro-[2,2′]bi-pyridinyl-6-carboxylic acid (3-amino-3,4,5,6-tetrahydro-2H-[1,4′]bipyridinyl-3′-yl)-amide]
< 1000 nM: all assays above
